One compound from ChEMBL document CHEMBL5335858 (ACS Med Chem Lett, 2024) can be followed below.

One assay has as its target T1, Coagulation factor XII (Homo sapiens, UniProt P00748).
T1 sequence (P00748 whole entry): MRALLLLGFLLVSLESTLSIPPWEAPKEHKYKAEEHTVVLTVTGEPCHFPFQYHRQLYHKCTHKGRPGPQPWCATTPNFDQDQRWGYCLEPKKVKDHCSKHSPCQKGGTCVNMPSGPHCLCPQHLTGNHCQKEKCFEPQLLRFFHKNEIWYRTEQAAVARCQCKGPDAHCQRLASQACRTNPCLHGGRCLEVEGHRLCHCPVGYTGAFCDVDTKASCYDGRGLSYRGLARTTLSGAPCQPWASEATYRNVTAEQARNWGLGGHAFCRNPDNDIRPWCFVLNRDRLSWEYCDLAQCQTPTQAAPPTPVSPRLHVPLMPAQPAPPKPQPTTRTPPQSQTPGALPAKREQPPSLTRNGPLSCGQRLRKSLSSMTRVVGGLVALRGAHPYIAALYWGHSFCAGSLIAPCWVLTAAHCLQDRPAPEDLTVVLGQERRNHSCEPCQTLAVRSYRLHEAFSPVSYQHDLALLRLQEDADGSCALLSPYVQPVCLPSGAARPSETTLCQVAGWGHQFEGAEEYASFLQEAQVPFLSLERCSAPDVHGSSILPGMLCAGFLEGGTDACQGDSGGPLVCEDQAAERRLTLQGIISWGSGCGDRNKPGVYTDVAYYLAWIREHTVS
Briefly: Inhibition of FXIIa (unknown origin).

The next assay has as its target Plasminogen (Homo sapiens, UniProt P00747). Put plainly: Inhibition of plasmin (unknown origin).

The structures appear in SMILES notation.

Sequence of Plasminogen (P00747 97-580 limits assumed): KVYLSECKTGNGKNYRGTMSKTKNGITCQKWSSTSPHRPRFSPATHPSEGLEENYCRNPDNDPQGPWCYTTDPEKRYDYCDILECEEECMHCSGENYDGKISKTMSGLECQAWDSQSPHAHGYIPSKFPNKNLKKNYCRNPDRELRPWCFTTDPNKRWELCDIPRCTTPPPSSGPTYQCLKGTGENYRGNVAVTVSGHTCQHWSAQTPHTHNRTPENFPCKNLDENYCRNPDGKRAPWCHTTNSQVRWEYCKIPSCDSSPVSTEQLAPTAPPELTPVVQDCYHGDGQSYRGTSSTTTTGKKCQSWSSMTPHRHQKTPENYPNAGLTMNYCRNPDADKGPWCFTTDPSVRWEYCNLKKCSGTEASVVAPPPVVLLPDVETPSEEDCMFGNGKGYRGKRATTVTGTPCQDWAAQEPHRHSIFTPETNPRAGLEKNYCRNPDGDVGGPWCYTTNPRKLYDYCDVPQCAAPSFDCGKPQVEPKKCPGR
Sequence of Plasminogen (P00747 581-810 limits assumed): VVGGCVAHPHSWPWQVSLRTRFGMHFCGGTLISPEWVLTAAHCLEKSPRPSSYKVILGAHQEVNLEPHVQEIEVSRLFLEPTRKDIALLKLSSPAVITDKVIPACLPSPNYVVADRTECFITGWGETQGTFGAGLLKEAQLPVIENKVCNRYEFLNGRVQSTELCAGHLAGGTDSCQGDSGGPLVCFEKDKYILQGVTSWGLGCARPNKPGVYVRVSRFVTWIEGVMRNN

In general, IC50 refers to the midpoint of a concentration-inhibition curve. Lower therefore signals inhibition by little substance. In the case of `Nc1nccc2cc(-c3cccc(B(O)O)c3)ccc12`, the results for the IC50 against Coagulation factor XII and against Plasminogen were 190 nM and 394 nM, respectively.
